# Biological target: T1, soybean lipoxygenase (LOX) (Glycine max, UniProt P08170)
# T1 construct: gene LOX1.1
# T1 sequence (P08170 1-839): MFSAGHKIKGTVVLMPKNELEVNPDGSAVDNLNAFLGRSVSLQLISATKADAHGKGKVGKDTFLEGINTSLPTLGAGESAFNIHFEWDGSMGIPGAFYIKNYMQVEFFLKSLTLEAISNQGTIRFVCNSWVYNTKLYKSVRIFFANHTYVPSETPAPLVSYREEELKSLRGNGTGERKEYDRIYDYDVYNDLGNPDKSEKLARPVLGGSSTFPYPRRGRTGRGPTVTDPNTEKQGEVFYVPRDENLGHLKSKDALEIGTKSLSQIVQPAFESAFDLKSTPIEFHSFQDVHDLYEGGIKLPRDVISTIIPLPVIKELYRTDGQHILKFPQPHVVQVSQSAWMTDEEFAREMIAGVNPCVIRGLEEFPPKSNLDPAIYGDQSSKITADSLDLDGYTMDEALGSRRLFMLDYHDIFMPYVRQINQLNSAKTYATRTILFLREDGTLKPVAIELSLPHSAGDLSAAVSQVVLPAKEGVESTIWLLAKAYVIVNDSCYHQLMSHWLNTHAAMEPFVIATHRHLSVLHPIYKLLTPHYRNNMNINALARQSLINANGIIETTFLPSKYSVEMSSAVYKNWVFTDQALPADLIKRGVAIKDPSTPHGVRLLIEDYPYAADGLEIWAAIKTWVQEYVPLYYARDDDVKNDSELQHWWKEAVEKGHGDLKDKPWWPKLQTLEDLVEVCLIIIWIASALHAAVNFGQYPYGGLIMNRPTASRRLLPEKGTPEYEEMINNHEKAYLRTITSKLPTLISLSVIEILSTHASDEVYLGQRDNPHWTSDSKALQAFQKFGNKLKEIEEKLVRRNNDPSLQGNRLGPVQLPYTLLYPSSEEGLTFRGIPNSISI
# Experiment: soybean LOX inhibition, linoleate oxidation monitored at […] nm
# Assay type: biochemical
row,IC50 [µM],Structure (SMILES)
1,100,"C/[N+]([O-])=C/c1ccc(-c2ccccc2)cc1 [compound 1, (Z)-1-([1,1′-Biphenyl]-4-yl)-N-methylmethanimine oxide]"
2,57.5,"[O-]/[N+](=C\c1ccc(-c2ccccc2)cc1)Cc1ccccc1 [compound 3, (Z)-1-([1,1′-Biphenyl]-4-yl)-N-benzylmethanimine oxide]"
3,100,"CC(C)(C)/[N+]([O-])=C/c1ccc(-c2ccc(/C=[N+](\[O-])C(C)(C)C)cc2)cc1 [compound 5, (1Z,1′Z)-1,1′-([1,1′-Biphenyl]-4,4′-diyl)bis(N-tert-butylmethanimineoxide)]"
